Data on 5 compounds can be found in patent US10414775B2 (Merck Sharp & Dohme Corp., priority 2016, dated 2019).

Each structure is given as a SMILES string.

For orientation: IC50 means the midpoint of a concentration-inhibition curve. Low readings indicate greater potency, high ones weaker potency.

The target of the data set is T1, Human CYP8B1 (Homo sapiens, UniProt Q9UNU6).
T1 construct: tissue Xenotech; host or cells: human liver microsomes
T1 sequence (Q9UNU6 1-501): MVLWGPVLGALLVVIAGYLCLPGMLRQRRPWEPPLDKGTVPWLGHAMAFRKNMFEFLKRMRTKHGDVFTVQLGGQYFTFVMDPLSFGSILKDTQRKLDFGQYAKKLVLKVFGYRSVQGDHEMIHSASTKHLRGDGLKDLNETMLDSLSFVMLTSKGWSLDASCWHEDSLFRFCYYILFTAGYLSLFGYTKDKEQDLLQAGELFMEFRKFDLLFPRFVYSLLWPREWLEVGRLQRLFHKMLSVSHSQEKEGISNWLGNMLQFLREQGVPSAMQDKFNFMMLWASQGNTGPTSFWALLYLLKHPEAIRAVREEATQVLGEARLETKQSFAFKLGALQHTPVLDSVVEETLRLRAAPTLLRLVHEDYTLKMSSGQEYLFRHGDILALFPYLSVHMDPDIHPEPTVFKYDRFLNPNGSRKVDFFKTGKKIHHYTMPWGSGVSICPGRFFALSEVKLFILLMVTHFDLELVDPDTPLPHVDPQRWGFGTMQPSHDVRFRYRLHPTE
Description: Human Cyp8B1 Liver Microsome Assay. The data set is classed as biochemical. The note with it: human liver microsomes; substrate 7α-hydroxy-4-cholesten-3-one, NADPH; 30 min pre-incubation, 45 min reaction; RapidFire MS readout. The essentials: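 Human liver microsomes (65 μg/ml, 0.1 M phosphate pH 7.4) preincubated 30 min at room temperature with inhibitor (1.25% DMSO final), then reacted 45 min with 7α-hydroxy-4-cholesten-3-one and NADPH. 7α,12α-dihydroxy product quantified by RapidFire ESI+ MRM against d7 internal standard; IC50 from four-parameter logistic fit.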

`C[C@@H]1CN(c2c(Cl)cnc3cc(-c4ncco4)ccc23)CC[C@@H]1C(=O)N1CCn2c(nnc2C(F)(F)F)C1` [Example 76, ((3S,4S)-1-(3-chloro-7-(oxazol-2-yl)quinolin-4-yl)-3-methylpiperidin-4-yl)(3-(trifluoromethyl)-5,6-dihydro-[1,2,4]triazolo[4,3-a]pyrazin-7(8H)-yl)methanone] displayed an IC50 of 0.7 nM. For `C[C@@H]1CN(c2c(Cl)cnc3cc(-c4ncco4)ccc23)CC[C@@H]1C(=O)N1CCc2c(noc2C(F)(F)F)C1` [Example 77, ((3S,4S)-1-(3-chloro-7-(oxazol-2-yl)quinolin-4-yl)-3-methylpiperidin-4-yl)(3-(trifluoromethyl)-4,5-dihydroisoxazolo [3,4-c]pyridin-6(7H)-yl)methanone], 0.2 nM corresponded to half-maximal inhibition (IC50). `C[C@@H]1CN(c2c(Cl)cnc3cc(-c4ncco4)ccc23)CC[C@@H]1C(=O)N1CCn2c(nnc2C2CC2)C1` [Example 78, ((3S,4S)-1-(3-chloro-7-(oxazol-2-yl)quinolin-4-yl)-3-methylpiperidin-4-yl) (3-cyclopropyl-5,6-dihydro-[1,2,4]triazolo[4,3-a]pyrazin-7(8H)-yl)methanone] showed a half-inhibitory concentration (IC50) of 0.5 nM. Consider `C[C@@H]1CN(c2ccnc3cc(-c4ccncc4)ccc23)CC[C@@H]1C(=O)N1CCn2c(nnc2C(F)(F)F)C1` [Example 79, ((3S,4S)-3-methyl-1-(7-(pyridin-4-yl)quinolin-4-yl)piperidin-4-yl)(3-(trifluoromethyl)-5,6-dihydro-[1,2,4]triazolo[4,3-a]pyrazin-7(8H)-yl)methanone], for which 0.7 nM corresponded to half-maximal inhibition (IC50). Then `C[C@@H]1CN(c2ccnc3cc(-c4ccccc4)ccc23)CC[C@@H]1C(=O)N1CCn2c(nnc2C(F)(F)F)C1` [Example 80], with 0.4 nM.
